Data taken from patent US10836758B2, “Acyl sulfonamide NaV1.7 inhibitors” (BRISTOL-MYERS SQUIBB COMPANY, priority 2016, dated 2020).

Target: NaV1.7 (Homo sapiens (Human), UniProt Q15858)
Test: NaV1.7 IC50 of Table 1 (IonWorks Barracuda population patch clamp or ligand binding assay; table does not say which)
Assay type: cell-based
Conditions: HEK 293 cells expressing NaV1.7
Procedure: Ion Works Barracuda population patch clamp (PPC). PPC measurements were performed using an IonWorks Barracuda instrument (Molecular Devices Corporation, Union City, Calif.) using either PatchPlate™ PPC substrates (Molecular Devices Corporation) with 64 apertures per well. The ability to average currents from 64 recordings from each well greatly improves data consistency and recording success rates in the measurement of NaV1.7 mediated ionic currents. Calculated leak current was digitally subtracted from the total cell NaV1.7 current for each sample point acquired.
NaV1.7 currents were elicited by a voltage clamp protocol designed to bias the NaV1.7 channels to their inactivated state as follows. […] This was followed by a relatively brief hyperpolarization to −100 mv for 300 ms, then a 20 msec test pulse to −20 mV to elicit the NaV1.7 current used to measure the pharmacology of all test compounds. Compounds were incubated for 600 sec between the pre- and post-compound reads. […] The same solutions were used to record NaV1.5 currents, with the following voltage clamp protocol. NaV1.5 currents were elicited by a voltage clamp protocol designed to bias the NaV1.5 channels to their inactivated state as follows. […] This was followed by a relatively brief hyperpolarization to −100 mv for 30 ms, then a 20 msec test pulse to −10 mV to elicit the NaV1.5 current used to measure the pharmacology of all test compounds.
HEK 293 cells expressing NaV1.7 and NaV1.5 channels, were used (Essen Biosciences, Ann Arbor, Mich.). […] Cells were grown to 70% to 90% confluence in a flask and removed from the incubator (37° C., 5% CO2) 1 to 3 days after plating. Growth medium was aspirated from the culture flasks. […] Next a total of 2 mL TrypLE (Gibco) solution was added, and the flasks containing cells were sat for 3 min at RT, after which, the cells became visibly rounded and were easily dislodged from the bottom of the flask with a few brief taps on a solid surface. A total of 8 mL of media was added to the flask to inactivate the TrypLE, and the mixture was centrifuged at 910 rpm for 4 min. The cell supernatant was decanted, and the cell pellets were resuspended in 5-6 mL of external solution followed by gentle triturations using a 10 ml pipette, and transferred to a 15 ml conical tube and immediately brought to the IW Barracuda instrument.
Peak membrane currents were analyzed with IW Barracuda software and exported to Excel for further analysis. Concentration response curve fitting was performed with BMS in-house software. IC50 values were obtained by fits of the Hill equation to the average percent inhibition data plotted versus compound concentration. […] Results are reported in Table 1 (NaV1.7 Barra IC50 in nM and NaV1.5 Barra IC50 in nM).
hNaV1.7 binding affinities were determined with a filtration binding assay using purified membranes from HEK293 cells stably expressing hNaV1.7. HEK293 cells from a 10-stack cell culture flask (approximately 10^10 cells) were dissociated, frozen, and stored at −80° C. To prepare membranes, the frozen cell pellet was thawed and suspended in 6 ml hypotonic lysis buffer (50 mM HEPES, 0.1% mammalian protease inhibitor cocktail). 1 ml of resuspended cells was added to an additional 6 ml of lysis buffer and homogenized with 30 strokes of a tight pestle in a glass homogenizer. Homogenate was centrifuged at 1000×g for 10 minutes at 4° C. and the resulting supernatant was further centrifuged at 38,500×g for 60 minutes at 4° C. The resulting pellet was resuspended in binding buffer (50 mM HEPES, 130 mM NaCl, 5.4 mM KCl, 0.8 mM MgCl2, 5 mM glucose, pH 7.4) and needle homogenized with a 25 gauge needle. Protein concentration was determined with a BCA protein assay. Purified membranes were aliquoted, flash frozen in an ethyl alcohol dry ice bath, and stored at −80° C.

NaV1.7, sequence (Q15858 whole entry): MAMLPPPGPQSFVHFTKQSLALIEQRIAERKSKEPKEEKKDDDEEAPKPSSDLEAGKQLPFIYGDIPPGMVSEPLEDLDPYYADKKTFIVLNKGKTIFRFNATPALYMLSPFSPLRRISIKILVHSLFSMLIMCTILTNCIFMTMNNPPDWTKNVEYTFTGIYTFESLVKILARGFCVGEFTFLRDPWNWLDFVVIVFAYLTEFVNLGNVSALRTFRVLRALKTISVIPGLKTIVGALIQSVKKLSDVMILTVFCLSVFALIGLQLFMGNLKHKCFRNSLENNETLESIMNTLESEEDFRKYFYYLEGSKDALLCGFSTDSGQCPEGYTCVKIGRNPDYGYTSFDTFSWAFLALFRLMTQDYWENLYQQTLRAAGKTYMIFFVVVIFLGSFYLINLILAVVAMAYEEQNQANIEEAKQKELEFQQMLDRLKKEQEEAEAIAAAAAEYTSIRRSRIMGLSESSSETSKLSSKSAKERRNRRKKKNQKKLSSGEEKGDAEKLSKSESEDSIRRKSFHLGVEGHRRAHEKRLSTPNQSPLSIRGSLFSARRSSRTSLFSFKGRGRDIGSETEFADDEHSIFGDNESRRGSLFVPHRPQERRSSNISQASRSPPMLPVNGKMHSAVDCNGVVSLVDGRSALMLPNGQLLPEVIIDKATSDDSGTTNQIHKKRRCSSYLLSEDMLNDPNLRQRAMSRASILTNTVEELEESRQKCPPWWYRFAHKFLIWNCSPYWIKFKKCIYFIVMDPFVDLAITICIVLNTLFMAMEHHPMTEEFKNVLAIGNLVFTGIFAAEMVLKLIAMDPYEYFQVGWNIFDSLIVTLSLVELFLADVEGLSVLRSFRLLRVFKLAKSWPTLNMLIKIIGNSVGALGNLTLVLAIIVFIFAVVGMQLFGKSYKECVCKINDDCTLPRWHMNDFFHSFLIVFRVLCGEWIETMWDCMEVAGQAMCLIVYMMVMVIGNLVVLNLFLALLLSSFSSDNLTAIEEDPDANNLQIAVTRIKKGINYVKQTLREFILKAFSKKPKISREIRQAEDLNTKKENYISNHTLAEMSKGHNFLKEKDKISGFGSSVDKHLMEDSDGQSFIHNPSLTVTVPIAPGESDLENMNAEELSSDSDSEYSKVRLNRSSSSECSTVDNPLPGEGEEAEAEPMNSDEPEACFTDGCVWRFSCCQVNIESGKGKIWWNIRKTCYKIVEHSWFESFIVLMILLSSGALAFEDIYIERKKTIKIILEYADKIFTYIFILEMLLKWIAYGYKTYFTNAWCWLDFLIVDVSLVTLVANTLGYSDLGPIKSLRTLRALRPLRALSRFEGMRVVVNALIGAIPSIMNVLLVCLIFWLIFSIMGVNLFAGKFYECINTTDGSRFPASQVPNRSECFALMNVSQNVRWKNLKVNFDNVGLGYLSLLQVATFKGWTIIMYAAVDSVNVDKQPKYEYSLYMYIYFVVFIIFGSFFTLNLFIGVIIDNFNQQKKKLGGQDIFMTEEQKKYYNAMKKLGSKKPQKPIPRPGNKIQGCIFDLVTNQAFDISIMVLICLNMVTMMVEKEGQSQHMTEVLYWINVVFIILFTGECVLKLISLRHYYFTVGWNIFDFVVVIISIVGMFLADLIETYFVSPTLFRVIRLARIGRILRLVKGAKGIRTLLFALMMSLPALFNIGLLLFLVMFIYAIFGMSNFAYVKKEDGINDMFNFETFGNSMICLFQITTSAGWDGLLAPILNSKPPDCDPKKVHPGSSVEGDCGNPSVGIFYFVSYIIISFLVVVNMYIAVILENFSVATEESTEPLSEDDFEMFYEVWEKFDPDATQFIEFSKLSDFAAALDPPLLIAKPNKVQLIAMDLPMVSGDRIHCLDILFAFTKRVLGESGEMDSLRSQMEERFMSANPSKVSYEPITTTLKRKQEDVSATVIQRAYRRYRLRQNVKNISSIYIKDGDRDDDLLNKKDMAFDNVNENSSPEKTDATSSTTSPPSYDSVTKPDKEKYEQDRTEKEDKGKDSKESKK

SMILES	IC50 [nM]
NCC1CCCC(CNc2cc(F)c(S(=O)(=O)Nc3nccs3)cc2Cl)C1 (stereo not drawn) [Example 32, 4-(((3-(Aminomethyl)cyclohexyl)methyl)amino)-5-chloro-2-fluoro-N-(thiazol-2-yl)benzenesulfonamide]	28
O=S(=O)(Nc1nccs1)c1cc(Cl)c(NCCC2(O)CCCC2)cc1F [Example 35, 5-Chloro-2-fluoro-4-((2-(1-hydroxycyclopentyl)ethyl)amino)-N-(thiazol-2-yl)benzenesulfonamide]	101
O=S(=O)(Nc1nccs1)c1cc(Cl)c(N[C@H]2CC[C@@H](O)CC2)cc1F [Example 36, 5-Chloro-2-fluoro-4-(((1s,4s)-4-hydroxycyclohexyl)amino)-N-(thiazol-2-yl)benzenesulfonamide]	210
O=S(=O)(Nc1nccs1)c1cc(Cl)c(NCCC2CCCO2)cc1F (stereo not drawn) [Example 39, 5-Chloro-2-fluoro-4-((2-(tetrahydrofuran-2-yl)ethyl)amino)-N-(thiazol-2-yl)benzenesulfonamide]	221
CN1C(C)(C)CC(Nc2cc(F)c(S(=O)(=O)Nc3nccs3)cc2Cl)CC1(C)C [Example 42, 5-Chloro-2-fluoro-4-((1,2,2,6,6-pentamethylpiperidin-4-yl)amino)-N-(thiazol-2-yl)benzenesulfonamide]	286
O=S(=O)(Nc1nccs1)c1cc(Cl)c(NC[C@@H]2CCCNC2)cc1F [Example 43, (R)-5-Chloro-2-fluoro-4-((piperidin-3-ylmethyl)amino)-N-(thiazol-2-yl)benzenesulfonamide]	272
O=S(=O)(Nc1ncns1)c1cc(F)c(OCCC2(c3ccc(Cl)cc3)CCNCC2)cc1F [Example 44, 4-(2-(4-(4-Chlorophenyl)piperidin-4-yl)ethoxy)-2,5-difluoro-N-(1,2,4-thiadiazol-5-yl)benzenesulfonamide]	124
O=S(=O)(Nc1ncns1)c1cc(Cl)c(OCCC2(c3ccc(Cl)cc3)CCNCC2)cc1F [Example 45, 5-Chloro-4-(2-(4-(4-chlorophenyl)piperidin-4-yl)ethoxy)-2-fluoro-N-(1,2,4-thiadiazol-5-yl)benzenesulfonamide]	39
O=S(=O)(Nc1ncns1)c1cc(F)c(OCCC2(c3ccc(Cl)c(F)c3)CCNCC2)cc1F [Example 46, 4-(2-(4-(4-Chloro-3-fluorophenyl)piperidin-4-yl)ethoxy)-2,5-difluoro-N-(1,2,4-thiadiazol-5-yl)benzenesulfonamide]	110
O=S(=O)(Nc1ncns1)c1cc(Cl)c(OCCC2(c3ccc(Cl)c(F)c3)CCNCC2)cc1F [Example 47, 5-Chloro-4-(2-(4-(4-chloro-3-fluorophenyl)piperidin-4-yl)ethoxy)-2-fluoro-N-(1,2,4-thiadiazol-5-yl)benzenesulfonamide]	33
O=S(=O)(Nc1ncns1)c1cc(F)c(OCCC2(c3ccccc3)CCC(O)CC2)cc1F (stereo not drawn) [Example 48, 2,5-Difluoro-4-(2-(4-hydroxy-1-phenylcyclohexyl)ethoxy)-N-(1,2,4-thiadiazol-5-yl)benzenesulfonamide]	117
NC1CCC(CCOc2cc(F)c(S(=O)(=O)Nc3ncns3)cc2F)CC1 (stereo not drawn) [Example 60, 4-(2-(4-Aminocyclohexyl)ethoxy)-2,5-difluoro-N-(1,2,4-thiadiazol-5-yl)benzenesulfonamide]	367
CNC1CCC(COc2cc(F)c(S(=O)(=O)Nc3ncns3)cc2F)(Cc2ccc(Cl)c(F)c2)CC1 (stereo not drawn) [Example 63, 4-((1-(4-Chloro-3-fluorobenzyl)-4-(methylamino)cyclohexyl)methoxy)-2,5-difluoro-N-(1,2,4-thiadiazol-5-yl)benzenesulfonamide]	68
O=S(=O)(Nc1ncns1)c1cc(F)c(OCC2(Cc3ccc(Cl)c(F)c3)CCC(O)CC2)cc1F (stereo not drawn) [Example 64, 4-((1-(4-chloro-3-fluorobenzyl)-4-hydroxycyclohexyl)methoxy)-2,5-difluoro-N-(1,2,4-thiadiazol-5-yl)benzenesulfonamide]	285
O=S(=O)(Nc1nccs1)c1cc(Cl)c(NC2CCC3CNCC32)cc1F (stereo not drawn) [Example 65, 5-chloro-2-fluoro-4-((octahydrocyclopenta[c]pyrrol-4-yl)amino)-N-(thiazol-2-yl)benzenesulfonamide]	98
O=S(=O)(Nc1nccs1)c1cc(Cl)c(N2CCCC(C3CCNCC3)C2)cc1F (stereo not drawn) [Example 66, 4-([3,4′-bipiperidin]-1-yl)-5-chloro-2-fluoro-N-(thiazol-2-yl)benzenesulfonamide]	291
O=S(=O)(Nc1nccs1)c1cc(Cl)c(N2CCC3CCNCC3C2)cc1F (stereo not drawn) [Example 67, 5-chloro-2-fluoro-4-(octahydro-2,7-naphthyridin-2(1H)-yl)-N-(thiazol-2-yl)benzenesulfonamide]	267
COCCN1CCCC1CNc1cc(F)c(S(=O)(=O)Nc2nccs2)cc1Cl (stereo not drawn) [Example 68, 5-chloro-2-fluoro-4-(((1-(2-methoxyethyl)pyrrolidin-2-yl)methyl)amino)-N-(thiazol-2-yl)benzenesulfonamide]	138
COCC1CCN(c2cc(F)c(S(=O)(=O)Nc3nccs3)cc2Cl)C1 (stereo not drawn) [Example 69, 5-chloro-2-fluoro-4-(3-(methoxymethyl)pyrrolidin-1-yl)-N-(thiazol-2-yl)benzenesulfonamide]	568
O=S(=O)(Nc1nccs1)c1cc(Cl)c(N2CCC(CO)C2)cc1F (stereo not drawn) [Example 70, 5-chloro-2-fluoro-4-(3-(hydroxymethyl)pyrrolidin-1-yl)-N-(thiazol-2-yl)benzenesulfonamide]	806
O=S(=O)(Nc1nccs1)c1cc(Cl)c(NCCC2CCCCN2O)cc1F (stereo not drawn) [Example 75, 5-chloro-2-fluoro-4-((2-(1-hydroxypiperidin-2-yl)ethyl)amino)-N-(thiazol-2-yl)benzenesulfonamide]	41
